Assay results taken from ChEMBL document CHEMBL1649488, “In vitro activities of echinocandins against Candida krusei determined by three methods: MIC and minimal fungicidal concentration measurements and time-kill studies” (2009).
In brackets after ≈: the same amount, converted by molar mass. Starred links: 1 amine or outer side, 2 acyl side, 3 side chain; linkers in the order of their positions; H or OH if unused. Positions of bridges follow the written chain, without caps; N, C: chain ends. Non-standard residues stand in square brackets, D forms with d. Residues, ends and D or L forms follow the SMILES beside them. *: point of attachment. pTerphenylCO(4''-OnC5H11) = CCCCCOc1ccc(-c2ccc(-c3ccc(C(=O)*)cc3)cc2)cc1; Orn(4R-OH,5R-OH) = O=C([C@H](C[C@@H](O)[C@@H](O)N[*:3])N[*:1])[*:2]; hTyr(3S-OH,4S-OH) = N[C@H](C(=O)O)[C@H](O)[C@@H](O)c1ccc(O)cc1; Pro(3S-OH,4S-Me) = C[C@H]1CN[C@H](C(=O)O)[C@H]1O; Hyp = O=C(O)[C@@H]1C[C@@H](O)CN1

Assays:
Type in all cases: functional
Pichia kudriavzevii [1] = assay: Antifungal activity against Candida krusei ATCC 6258 bloodstream forms assessed as time to achieve 50% fungal growth reduction at 0.5 mg/L by time-kill analysis
Pichia kudriavzevii [2] = assay: Antifungal activity against Candida krusei ATCC 6258 bloodstream forms assessed as time to achieve 90% fungal growth reduction at 2 mg/L by time-kill analysis
Pichia kudriavzevii [3] = assay: Antifungal activity against Candida krusei ATCC 6258 bloodstream forms assessed as time to achieve 50% fungal growth reduction at 2 mg/L by time-kill analysis
Pichia kudriavzevii [4] = assay: Antifungal activity against Candida krusei ATCC 6258 bloodstream forms assessed as time to achieve 90% fungal growth reduction at 0.5 mg/L by time-kill analysis
Pichia kudriavzevii [5] = assay: Fungicidal activity against Candida krusei CY118 bloodstream forms after 24 hrs by time-kill analysis; conditions: CY118, 24 h
Pichia kudriavzevii [6] = assay: Antifungal activity against Candida krusei EU123 bloodstream forms after 24 hrs by time-kill analysis; conditions: EU123, 24 h
Pichia kudriavzevii [7] = assay: Antifungal activity against Candida krusei ATCC 6258 bloodstream forms after 24 hrs by time-kill analysis; conditions: ATCC 6258, 24 h
Pichia kudriavzevii [8] = assay: Antifungal activity against Candida krusei EU220 bloodstream forms after 24 hrs by time-kill analysis; conditions: EU220, 24 h
Pichia kudriavzevii [9] = assay: Antifungal activity against Candida krusei ATCC 6258 bloodstream forms assessed as minimum concentration producing >= 100% growth reduction after 48 hrs by M27-A3 microdilution method; conditions: ATCC 6258, 48 h
Pichia kudriavzevii [10] = assay: Antifungal activity against Candida krusei ATCC 6258 bloodstream forms assessed as time to achieve 99% fungal growth reduction at 0.12 mg/L by time-kill analysis
Pichia kudriavzevii [11] = assay: Antifungal activity against Candida krusei ATCC 6258 bloodstream forms assessed as time to achieve 90% fungal growth reduction at 0.12 mg/L by time-kill analysis
Pichia kudriavzevii [12] = assay: Fungicidal activity against Candida krusei CK2 bloodstream forms after 24 hrs by time-kill analysis; conditions: CK2, 24 h
Pichia kudriavzevii [13] = assay: Antifungal activity against Candida krusei ATCC 6258 bloodstream forms assessed as time to achieve 50% fungal growth reduction at 0.12 mg/L by time-kill analysis
Pichia kudriavzevii [14] = assay: Antifungal activity against Candida krusei CK6 bloodstream forms after 24 hrs by time-kill analysis; conditions: CK6, 24 h
Pichia kudriavzevii [15] = assay: Antifungal activity against Candida krusei ATCC 6258 bloodstream forms assessed as time to achieve 99% fungal growth reduction at 2 mg/L by time-kill analysis
Pichia kudriavzevii [16] = assay: Antifungal activity against Candida krusei ATCC 6258 bloodstream forms assessed as minimum concentration producing >= 50% growth reduction after 48 hrs by M27-A3 microdilution method; conditions: ATCC 6258, 48 h
Pichia kudriavzevii [17] = assay: Fungicidal activity against Candida krusei CK1 bloodstream forms after 24 hrs by time-kill analysis; conditions: CK1, 24 h
Pichia kudriavzevii [18] = assay: Fungicidal activity against Candida krusei ATCC 6258 bloodstream forms after 48 hrs by M27-A3 microdilution method
Pichia kudriavzevii [19] = assay: Antifungal activity against Candida krusei CK1 bloodstream forms after 24 hrs by time-kill analysis; conditions: CK1, 24 h
Pichia kudriavzevii [20] = assay: Fungicidal activity against Candida krusei CK6 bloodstream forms after 24 hrs by time-kill analysis; conditions: CK6, 24 h
Pichia kudriavzevii [21] = assay: Antifungal activity against Candida krusei CY118 bloodstream forms after 24 hrs by time-kill analysis; conditions: CY118, 24 h
Pichia kudriavzevii [22] = assay: Fungicidal activity against Candida krusei EU220 bloodstream forms after 24 hrs by time-kill analysis; conditions: EU220, 24 h
Pichia kudriavzevii [23] = assay: Antifungal activity against Candida krusei ATCC 6258 bloodstream forms assessed as time to achieve 99.9% fungal growth reduction at 8 mg/L by time-kill analysis
Pichia kudriavzevii [24] = assay: Antifungal activity against Candida krusei CK18 bloodstream forms after 24 hrs by time-kill analysis; conditions: CK18, 24 h
Pichia kudriavzevii [25] = assay: Fungicidal activity against Candida krusei EU123 bloodstream forms after 24 hrs by time-kill analysis; conditions: EU123, 24 h
Pichia kudriavzevii [26] = assay: Antifungal activity against Candida krusei ATCC 6258 bloodstream forms assessed as time to achieve 50% fungal growth reduction at 8 mg/L by time-kill analysis
Pichia kudriavzevii [27] = assay: Antifungal activity against Candida krusei ATCC 6258 bloodstream forms assessed as time to achieve 99.9% fungal growth reduction at 2 mg/L by time-kill analysis
Pichia kudriavzevii [28] = assay: Antifungal activity against Candida krusei ATCC 6258 bloodstream forms assessed as minimum concentration producing >= 100% growth reduction after 24 hrs by M27-A3 microdilution method; conditions: ATCC 6258, 24 h
Pichia kudriavzevii [29] = assay: Antifungal activity against Candida krusei ATCC 6258 bloodstream forms assessed as minimum concentration producing >= 50% growth reduction after 24 hrs by M27-A3 microdilution method; conditions: ATCC 6258, 24 h
Pichia kudriavzevii [30] = assay: Fungicidal activity against Candida krusei CK18 bloodstream forms after 24 hrs by time-kill analysis; conditions: CK18, 24 h
Pichia kudriavzevii [31] = assay: Antifungal activity against Candida krusei ATCC 6258 bloodstream forms assessed as time to achieve 99% fungal growth reduction at 8 mg/L by time-kill analysis
Pichia kudriavzevii [32] = assay: Antifungal activity against Candida krusei ATCC 6258 bloodstream forms assessed as time to achieve 90% fungal growth reduction at 8 mg/L by time-kill analysis
Pichia kudriavzevii [33] = assay: Fungicidal activity against Candida krusei ATCC 6258 bloodstream forms after 24 hrs by time-kill analysis; conditions: ATCC 6258, 24 h
Pichia kudriavzevii [34] = assay: Antifungal activity against Candida krusei ATCC 6258 bloodstream forms assessed as time to achieve 99.9% fungal growth reduction at 0.5 mg/L by time-kill analysis
Pichia kudriavzevii [35] = assay: Antifungal activity against Candida krusei ATCC 6258 bloodstream forms assessed as time to achieve 99% fungal growth reduction at 0.5 mg/L by time-kill analysis
Pichia kudriavzevii [36] = assay: Antifungal activity against Candida krusei CK2 bloodstream forms after 24 hrs by time-kill analysis; conditions: CK2, 24 h
Pichia kudriavzevii [37] = assay: Antifungal activity against Candida krusei ATCC 6258 bloodstream forms assessed as time to achieve 99.9% fungal growth reduction at 0.12 mg/L by time-kill analysis

Structure (SMILES): CCCCCOc1ccc(-c2ccc(-c3ccc(C(=O)N[C@H]4C[C@@H](O)[C@@H](O)NC(=O)[C@@H]5[C@@H](O)[C@@H](C)CN5C(=O)[C@H]([C@@H](C)O)NC(=O)[C@H]([C@H](O)[C@@H](O)c5ccc(O)cc5)NC(=O)[C@@H]5C[C@@H](O)CN5C(=O)[C@H]([C@@H](C)O)NC4=O)cc3)cc2)cc1 [ANIDULAFUNGIN] ({pTerphenylCO(4''-OnC5H11)}-[Orn(4R-OH,5R-OH)]T[Hyp][hTyr(3S-OH,4S-OH)]T[Pro(3S-OH,4S-Me)]; lactam 1-C)
- Time (Pichia kudriavzevii [1]): 6.7 h
- Time (Pichia kudriavzevii [2]): 6.4 h
- Time (Pichia kudriavzevii [3]): 1.9 h
- Time (Pichia kudriavzevii [4]): 22.4 h
- MFC (Pichia kudriavzevii [5]): 8 µg/mL (≈ 7.02 µM)
- MIC (Pichia kudriavzevii [6]): 0.12 µg/mL (≈ 0.105 µM)
- MIC (Pichia kudriavzevii [7]): 0.03 µg/mL (≈ 0.0263 µM)
- MIC (Pichia kudriavzevii [8]): 0.12 µg/mL (≈ 0.105 µM)
- MIC50 (Pichia kudriavzevii [9]): 0.25 µg/mL (≈ 0.219 µM)
- MIC90 (Pichia kudriavzevii [9]): 0.5 µg/mL (≈ 0.438 µM)
- Time (Pichia kudriavzevii [10]): >48 h
- Time (Pichia kudriavzevii [11]): 25.5 h
- MFC (Pichia kudriavzevii [12]): 0.5 µg/mL (≈ 0.438 µM)
- Time (Pichia kudriavzevii [13]): 7.7 h
- MIC (Pichia kudriavzevii [14]): 0.12 µg/mL (≈ 0.105 µM)
- Time (Pichia kudriavzevii [15]): 12.7 h
- MIC50 (Pichia kudriavzevii [16]): 0.12 µg/mL (≈ 0.105 µM)
- MIC90 (Pichia kudriavzevii [16]): 0.25 µg/mL (≈ 0.219 µM)
- MFC (Pichia kudriavzevii [17]): 0.5 µg/mL (≈ 0.438 µM)
- MFC50 (Pichia kudriavzevii [18]): 0.25 µg/mL (≈ 0.219 µM)
- MFC90 (Pichia kudriavzevii [18]): 0.5 µg/mL (≈ 0.438 µM)
- MFC (Pichia kudriavzevii [18]; Pichia kudriavzevii, ATCC 6258, 48 h): 0.12 µg/mL (≈ 0.105 µM)
- MIC (Pichia kudriavzevii [19]): 0.12 µg/mL (≈ 0.105 µM)
- MFC (Pichia kudriavzevii [20]): 0.25 µg/mL (≈ 0.219 µM)
- MIC (Pichia kudriavzevii [21]): 0.5 µg/mL (≈ 0.438 µM)
- MFC (Pichia kudriavzevii [22]): 0.12 µg/mL (≈ 0.105 µM)
- Time (Pichia kudriavzevii [23]): 20.68 h
- MIC (Pichia kudriavzevii [24]): 0.12 µg/mL (≈ 0.105 µM)
- MFC (Pichia kudriavzevii [25]): 0.5 µg/mL (≈ 0.438 µM)
- Time (Pichia kudriavzevii [26]): 2.1 h
- Time (Pichia kudriavzevii [27]): 19.1 h
- MIC50 (Pichia kudriavzevii [28]): 0.12 µg/mL (≈ 0.105 µM)
- MIC90 (Pichia kudriavzevii [28]): 0.25 µg/mL (≈ 0.219 µM)
- MIC50 (Pichia kudriavzevii [29]): 0.12 µg/mL (≈ 0.105 µM)
- MIC90 (Pichia kudriavzevii [29]): 0.12 µg/mL (≈ 0.105 µM)
- MFC (Pichia kudriavzevii [30]): 0.5 µg/mL (≈ 0.438 µM)
- Time (Pichia kudriavzevii [31]): 13.8 h
- Time (Pichia kudriavzevii [32]): 6.9 h
- MFC (Pichia kudriavzevii [33]): 0.25 µg/mL (≈ 0.219 µM)
- Time (Pichia kudriavzevii [34]): >48 h
- Time (Pichia kudriavzevii [35]): >48 h
- MIC (Pichia kudriavzevii [36]): 0.06 µg/mL (≈ 0.0526 µM)
- Time (Pichia kudriavzevii [37]): >48 h
